The source of these data is US20240190851A1, “FURAN FUSED RING-SUBSTITUTED GLUTARIMIDE COMPOUND” (MEDSHINE DISCOVERY INC., priority 2021, published 2024).

The test system of experiment [1] is human prostate cancer LNCaP xenograft tumor. In words: In vivo pharmacodynamic study, LNCaP subcutaneous xenograft tumor CB-17 SCID model. To be noted: Enzalutamide 20 mg/kg p.o. QD. On the set-up: species or system CB-17 SCID mice. On the procedure: Human prostate cancer LNCaP cells (ECACC-89110211) were cultured in vitro in a monolayer under the culture conditions of RPMI-1640 medium with 10% fetal bovine serum, […], and 100 μg/mL streptomycin, and cultured in a 37° C., 5% CO2 incubator.
Routine digestion with trypsin-EDTA was performed twice a week for passaging. When the cell saturation density was 80% to 90% and the number of cells reached the required level, the cells were collected, counted, and inoculated.
CB-17 SCID mice, 6 to 8 weeks old, male, weighing 18 to 22 g.
0.2 mL (1×10^7) of LNCaP cells (with matrix gel, volume ratio of 1:1) were subcutaneously inoculated on the right back of each mouse. The mice were subjected to surgical castration when the average tumor volume reached approximately 80 mm^3, and grouping and administration were initiated when the average tumor volume reached 166 mm^3.
Tumor diameters were measured twice a week with a vernier caliper. The formula for calculating tumor volume was: V=0.5a×b^2, wherein a and b represented the long and short diameters of the tumor, respectively.
The antitumor efficacy of compounds was evaluated by TGI (%). TGI (%) reflected the tumor growth inhibition rate. TGI (0%)=[(1−(average tumor volume at the end of administration in a treatment group−average tumor volume at the beginning of administration in this treatment group))/(average tumor volume at the end of treatment in the vehicle control group−average tumor volume at the beginning of treatment in the vehicle control group)]×100%.

Experiment [2] addresses T1, androgen receptor AR (Homo sapiens, UniProt P10275, T878A).
T1 construct: degradation effect of compounds on androgen receptor AR in LNCaP cells; endogenous in cells; host or cells: LNCaP
T1 sequence (P10275 1-920 T878A): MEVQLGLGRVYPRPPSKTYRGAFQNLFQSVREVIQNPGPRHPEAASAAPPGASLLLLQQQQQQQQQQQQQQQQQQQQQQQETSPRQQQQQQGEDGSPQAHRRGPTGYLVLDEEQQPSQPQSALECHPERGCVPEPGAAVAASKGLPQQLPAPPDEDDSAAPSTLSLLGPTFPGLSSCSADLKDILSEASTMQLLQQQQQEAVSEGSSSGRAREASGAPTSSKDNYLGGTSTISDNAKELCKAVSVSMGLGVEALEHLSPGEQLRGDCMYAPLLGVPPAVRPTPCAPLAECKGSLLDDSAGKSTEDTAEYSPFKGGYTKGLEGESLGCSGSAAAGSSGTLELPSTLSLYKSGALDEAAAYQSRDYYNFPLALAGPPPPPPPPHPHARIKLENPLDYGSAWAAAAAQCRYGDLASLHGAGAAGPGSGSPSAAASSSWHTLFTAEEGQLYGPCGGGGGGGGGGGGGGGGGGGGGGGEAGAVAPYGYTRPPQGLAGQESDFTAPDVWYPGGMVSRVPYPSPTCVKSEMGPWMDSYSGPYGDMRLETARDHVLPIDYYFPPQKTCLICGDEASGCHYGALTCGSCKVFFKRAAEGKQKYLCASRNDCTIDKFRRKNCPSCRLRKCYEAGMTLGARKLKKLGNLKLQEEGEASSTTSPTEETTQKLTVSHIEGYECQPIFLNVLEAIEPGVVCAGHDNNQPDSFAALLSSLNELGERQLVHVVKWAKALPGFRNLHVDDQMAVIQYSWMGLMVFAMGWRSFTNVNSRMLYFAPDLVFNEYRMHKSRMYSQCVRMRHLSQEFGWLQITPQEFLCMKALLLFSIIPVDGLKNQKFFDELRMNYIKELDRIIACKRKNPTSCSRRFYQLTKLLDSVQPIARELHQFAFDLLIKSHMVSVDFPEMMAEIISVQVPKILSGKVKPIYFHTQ
In words: AR degradation in LNCaP cells by ICW method. Type of experiment: cell-based. The following applies: 24 hours. The procedure:
Experimental purpose: To test the degradation effect of compounds on androgen receptor AR in LNCaP cells by ICW method.
Day 1 • 1. The cell culture medium, 0.025% trypsin, and phosphate buffered saline were preheated in a 37° C. water bath. • 2. Cells digested by trypsin were centrifuged at 1000 rpm for 5 minutes. The supernatant was discarded, and then the cells were resuspended in fresh culture medium. • 3. The cells were inoculated in a COL-Coated CellCarrier-384 plate at a density of 4 k/[…]/well. • 4. The 384 cell plate inoculated with cells was placed in an ultra-clean bench for 10 minutes. • 5. The cell plate was cultured overnight in a CO2 cell incubator.
Day 2 • 1. The compound at a concentration of 10 mM was diluted to 3 mM (3 μL+7 μL of dimethyl sulfoxide) before serial dilution. • 2. The compound was serially diluted 3-fold (4 μL+8 μL) in an Echo plate using Bravo. • 3. ZPE and HPE control wells were setup, and the ZPE control wells were dimethyl sulfoxide. • 4. The Echo plate was centrifuged at 1000 rpm for 1 minute, and then the diluted compound was transferred from the Echo plate to an intermediate plate using Echo with 200 nL/well. • 5. To the intermediate plate was added the cell culture medium using Multidrop combi with […]. • 6. The intermediate plate was shaken on a horizontal shaker for 1 minute to mix the compound well with the culture medium. • 7. The compound was transferred from the intermediate dilution plate to the cell plate using Bravo with 4 μL/well. • 8. The cell plate was shaken on the horizontal shaker for 1 minute, and centrifuged at 800 rpm for 30 seconds. • 9. The cell plate was returned to the CO2 incubator, and cultured for another 24 hours.
Day 3 • 1. 4% paraformaldehyde was removed from the refrigerator and brought to room temperature. • 2. The cell plate was removed from the incubator. • 3. To the cell plate was directly added 4% paraformaldehyde with 40 μL/well. • 4. The plate was incubated at room temperature for 20 minutes. • 5. The culture medium was manually shaken off from the cell plate, inverted in a centrifuge, and centrifuged at 800 rpm for 7 seconds to fully remove the residual culture medium. • 6. To the cell plate was added 4% paraformaldehyde with 25 μL/well. • 7. The plate was incubated at room temperature for 30 minutes. • 8. The paraformaldehyde solution was manually shaken off from the cell plate, inverted in the centrifuge, and centrifuged at 800 rpm for 7 seconds. • 9. 0.1% Trition was added with 25 μL/well. • 10. The plate was incubated at room temperature for 10 minutes. • 11. The 0.1% Trition solution was manually shaken off from the cell plate, inverted in the centrifuge, and centrifuged at 800 rpm for 7 seconds. • 12. Intercept® (PBS) blocking buffer was added with 25 μL/well. • 13. The plate was incubated at room temperature for 1 hour. • 14. The Intercept® (PBS) blocking buffer solution was manually shaken off from the cell plate, inverted in the centrifuge, and centrifuged at 800 rpm for 7 seconds. • 15. Primary antibody solution was added with 20 μL/well. The cell plate was placed in the centrifuge, and centrifuged at 800 rpm for 7 seconds. • 16. The cell plate was sealed, and then incubated overnight at 4° C.
Day 4 • 1. The primary antibody solution was manually shaken off from the cell plate, inverted in the centrifuge, and centrifuged at 800 rpm for 7 seconds. • 2. The plate was washed three times with 110 μL of PBS. • 3. The cell plate was inverted in the centrifuge, and centrifuged at 800 rpm for 7 seconds. • 4. Secondary antibody and DAPI solution was added with 20 μL/well. The cell plate was placed in the centrifuge, and centrifuged at 800 rpm for 7 seconds. • 5. The plate was incubated at room temperature for 1 hour. • 6. The secondary antibody and DAPI solution was manually shaken off from the cell plate, inverted in the centrifuge, and centrifuged at 800 rpm for 7 seconds. • 7. […]

Experiment [3] concerns human prostate cancer LNCaP cells. In words: Antiproliferative effect in LNCaP cells (CellTiter-Glo, 6 days). To be noted: 144 h. Format: cell-based. On the procedure: In this experiment, the inhibitory effect of the test compound on cell proliferation in human prostate cancer LNCaP cells was detected.
The tumor cell lines were cultured in a 37° C., 5% CO2 incubator under the above culture conditions. Regular passage, and cells in logarithmic growth phase were taken for plating.
2. Cell Plating • (1) Cells were stained with trypan blue and viable cells were counted; • (2) the cell concentration was adjusted to an appropriate concentration;
• (3) 90 μL of cell suspension per well was added to the culture plate as shown in the table above, and cell-free culture medium was added to the blank control well; • (4) the culture plate was cultured overnight in a 37° C., 5% CO2 incubator with 100% relative humidity.
Preparation of stock solution storage plate with 400 times the initial concentration of the compound: The compound was serially diluted with DMSO from the highest concentration to the lowest concentration. The solution was prepared as needed each time.
Preparation of Working Solution with 10 Times the Initial Concentration of Compounds and Cell Treatment with Compounds • (1) To a V-bottom 96-well plate was added 78 μL of cell culture medium, and 2 μL of compound was pipetted from a stock solution storage plate with 400 times the initial concentration of the compound and added to the cell culture medium of the 96-well plate. To vehicle control and blank control was added 2 μL of DMSO. After the compound or DMSO was added, blowing with a pipette and mixing well were carried out. • (2) Administration: 10 μL of a working solution with 10 times the initial concentration of the compound was added to the cell culture plate. To vehicle control and blank control was added 10 μL of DMSO-cell culture medium mixture. • (3) The 96-well plate was returned to the incubator and cultured for 6 days.
The following steps were performed according to the instructions of Promega CellTiter-Glo luminescent cell viability assay kit (Promega-G7573). • (1) CellTiter-Glo buffer was melted and brought to room temperature; • (2) CellTiter-Glo substrate was brought to room temperature; • (3) CellTiter-Glo working solution was prepared by adding 100 mL of CellTiter-Glo buffer to a vial of CellTiter-Glo substrate to dissolve the substrate; • (4) the mixture was slowly vortexed and shaken to be fully dissolved; • (5) the cell culture plate was taken out and left for 30 minutes to equilibrate to room temperature; • (6) 50 μL of CellTiter-Glo working solution was added per well (equal to half the volume of cell culture medium per well). The cell plate was wrapped in aluminum foil to be protected from light; • (7) the culture plate was shaken on an orbital shaker for 2 minutes to induce cell lysis; (8) the culture plate was left at room temperature for 10 minutes to stabilize the luminescent signal; • (9) the luminescent signal was detected on a 2104 EnVision plate reader.
The inhibition rate (IR) of the test compound was calculated using the following formula: IR (%)=(RLU vehicle control−RLU compound)/(RLU vehicle control−RLU blank control)×100%. The inhibition rates of compounds at different concentrations were calculated in Excel, and then GraphPad Prism software was used to plot inhibition curves and calculate relevant parameters, including minimum inhibition rate, maximum inhibition rate, and ICSO.
Background: ATP-based viability assays read luminescence as a measure of living cells.

pIC50: −log10 of the molar value. Where a name gives a salt, the structure may show the parent alone.

In the case of `CNC(=O)c1ccc(N2C(=S)N(c3ccc(C#N)c(C(F)(F)F)c3)C(=O)C2(C)C)cc1F` [Enzalutamide, reference compound], the “Tumor volume (Day 0)” value in experiment [1] (Day 0, start of administration) stood at 166 ± 18 mm^3. Besides, in experiment [1] (Day 21), the “TGI (Day 21)” value is on record as 101.9% and the “Tumor volume (Day 21)” value is 157 ± 37 mm^3.

In the case of `N#Cc1ccc(O[C@H]2CC[C@H](NC(=O)c3ccc(N4CCC(CN5CCN(c6ccc7c(ccc8occ(C9CCC(=O)NC9=O)c87)c6)CC5)CC4)nn3)CC2)cc1Cl` (some centres unmarked) [Hydrochloride of WX014], in experiment [2], half-maximal degradation (DC50) was put at 22.4 nM and the Dmax (commonly the greatest extent of degradation seen) stood at 76.2%.

As for `CC1(C)C(=O)N(c2ccc(C#N)c(C(F)(F)F)c2)C(=S)N1c1ccc(OCCN2CCN(CC(=O)Nc3ccc4occ(C5CCC(=O)NC5=O)c4c3)CC2)c(F)c1` (centres unmarked) [WX001], in experiment [3], the pIC50 (usually −log10 of the IC50, conventionally taken in molar units) was 6.48.

For the molecule `CC1(C)C(=O)N(c2ccc(C#N)c(C(F)(F)F)c2)C(=S)N1c1ccc(OCCN2CCN(CC(=O)Nc3ccc4c(ccc5occ(C6CCC(=O)NC6=O)c54)c3)CC2)c(F)c1` (centres unmarked) [WX003], in experiment [3], the pIC50 was 6.64.

On to `CC1(C)C(=O)N(c2ccc(C#N)c(C(F)(F)F)c2)C(=S)N1c1ccc(OCCN2CCN(CCCc3ccc4c(C5CCC(=O)NC5=O)coc4c3)CC2)c(F)c1` (centres unmarked) [WX004], for which, in experiment [3], the pIC50 was 7.60.

Turning to `CC1(C)C(=O)N(c2ccc(C#N)c(C(F)(F)F)c2)C(=S)N1c1ccc(OCCN2CCN(C3(C(=O)Nc4ccc5occ(C6CCC(=O)NC6=O)c5c4)CC3)CC2)c(F)c1` (centres unmarked) [WX005], in experiment [3], the pIC50 is 6.72.

Take `CC1(C)C(=O)N(c2ccc(C#N)c(C(F)(F)F)c2)C(=S)N1c1ccc(OCCN2CCN(CC(=O)Nc3cccc4c3ccc3occ(C5CCC(=O)NC5=O)c34)CC2)c(F)c1` (centres unmarked) [WX009]: in experiment [2], it took 10.1 nM to reach half-maximal degradation (DC50) and the Dmax turned out to be 64.7%.
